The text below walks through data of ChEMBL document CHEMBL1201862, “PubChem BioAssay data set” (2004).

Some test systems named below: A498; ACHN; COLO 205; DU-145; HCT-15; HT-29; K562; KM12; LOX IMVI; MDA-MB-231; MOLT-4; NCI-H23; OVCAR-8; RXF 393; SF-295; SF-539; SK-MEL-2; SNB-75; UACC-257; UACC-62.
What all share (assay): NCI tumour cell line growth inhibition, 48 h

SMILES strings stand for the structures.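 Five compound concentrations were applied to cells in 96-well plates for 48 hours; endpoints were derived by simple linear interpolation of the resulting dose-response curve. At the GI50, growth is halved.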 Calls of active or inactive are those of the source. No stated cut-off is given here; in the data, active = GI50 up to about 1.1 µM and inactive = higher. Where only a bound is given, the exact number is not on record here.

`CCN(CC)CC1CCCCN1CC(=O)N1c2ccccc2NC(=O)c2ccccc21` (stereo not given): the GI50 in the assay with A498 was > 100 µM (inactive); with ACHN, > 100 µM (inactive); with COLO 205, > 100 µM (inactive); with DU-145 it was > 100 µM (inactive); in the assay with HCT-15, > 100 µM; in the assay with HT-29, > 100 µM (inactive). The GI50 was 79.3 µM (inactive) in the assay on K562; > 100 µM (inactive) in the assay with KM12; > 100 µM (inactive) with LOX IMVI; > 100 µM (inactive) in the assay on MDA-MB-231; > 100 µM (inactive) with MOLT-4; > 100 µM (inactive) in the assay on NCI-H23. For the same compound, the GI50 with OVCAR-8 was > 100 µM (inactive); with RXF 393, > 100 µM (inactive); in the assay on SF-295, > 100 µM (inactive); in the assay with SF-539, > 100 µM (inactive); in the assay on SK-MEL-2, > 100 µM (inactive); in the assay with SNB-75, 13.9 µM (inactive). In addition, the GI50 in the assay on UACC-257 and in the assay on UACC-62 was > 100 µM (inactive) each time.
Consider `COc1ccc(SCc2cc(OC)c(OC)c(OC)c2)cc1OC`, for which the GI50 in the assay on A498 is 40.9 µM (inactive); in the assay on ACHN, 51.8 µM (inactive); in the assay with COLO 205, 50.4 µM (inactive); in the assay with DU-145 it was > 100 µM (inactive); in the assay with HCT-15 it was 34 µM; in the assay on HT-29, 67.6 µM (inactive). Also, the GI50 in the assay with K562 is 42.9 µM (inactive); in the assay on KM12 it was 37.5 µM (inactive); in the assay with LOX IMVI, 51.4 µM (inactive); in the assay with MDA-MB-231 it was 57 µM (inactive); in the assay with MOLT-4, 46.2 µM (inactive); in the assay on NCI-H23, 27.5 µM (inactive). The GI50 in the assay on OVCAR-8 is > 80.2 µM (inactive); with RXF 393, > 95.5 µM (inactive); in the assay on SF-295, 45.7 µM (inactive); with SF-539, > 80.2 µM (inactive); in the assay on SK-MEL-2 it was 23 µM (inactive); with SNB-75, 17.7 µM (inactive). Further, the GI50 is 45.6 µM (inactive) in the assay with UACC-257 and 38 µM (inactive) in the assay on UACC-62.
As for `NNC(=O)CC(=O)Nc1ccccc1Cl`, the GI50 was > 100 µM (inactive) with A498; > 100 µM (inactive) in the assay with ACHN; > 100 µM (inactive) in the assay with COLO 205; > 100 µM (inactive) in the assay on DU-145; > 100 µM with HCT-15; > 100 µM (inactive) in the assay on HT-29. Further, the GI50 in the assay on K562, in the assay with KM12, in the assay with LOX IMVI, with MDA-MB-231, in the assay with MOLT-4 and in the assay on NCI-H23 was > 100 µM (inactive) in each case. Moreover, the GI50 in the assay with OVCAR-8, in the assay with RXF 393, in the assay with SF-295, with SF-539, with SK-MEL-2 and with SNB-75 was > 100 µM (inactive) in each case. The GI50 in the assay with UACC-257 and with UACC-62 was > 100 µM (inactive) each time.
Turning to `CN1CN(c2ccccc2)C2(CCN(CCCSc3ccccc3NC(=O)/C=C/c3ccccc3)CC2)C1=O`, the GI50 in the assay with A498 was 2.75 µM (inactive); in the assay on ACHN, 2.4 µM (inactive); in the assay with COLO 205, 2.01 µM (inactive); in the assay with DU-145, 3.82 µM (inactive); with HCT-15, 6.92 µM; with HT-29, 2.29 µM (inactive). The GI50 in the assay on K562 was 3.85 µM (inactive); in the assay with KM12 it was 4.59 µM (inactive); with LOX IMVI it was 2.25 µM (inactive); in the assay on MDA-MB-231, 1.73 µM (inactive); with MOLT-4, 2 µM (inactive); in the assay with NCI-H23, 4.61 µM (inactive). Further, the GI50 in the assay with OVCAR-8 is 6.19 µM (inactive); in the assay on RXF 393 it was 7.55 µM (inactive); in the assay on SF-295 it was 3.3 µM (inactive); with SF-539, 2.88 µM (inactive); with SK-MEL-2, 2.58 µM (inactive); in the assay on SNB-75, 5.52 µM (inactive). Moreover, the GI50 in the assay with UACC-257 was 1.78 µM (inactive); with UACC-62 it was 2.71 µM (inactive).
For the compound `COC1=CC(=O)C[C@@H](C)[C@]12Oc1c(Cl)c(OC)cc(OC)c1C2=O` [GRISEOFULVIN], the GI50 in the assay with A498 is > 47.2 µM (inactive); with ACHN, 67.3 µM (inactive); in the assay on COLO 205, 9.89 µM (inactive); in the assay on DU-145, 39.7 µM (inactive); in the assay with HCT-15, 22.8 µM; in the assay with HT-29, 16.8 µM (inactive). For the same compound, the GI50 with K562 is 3.47 µM (inactive); with KM12, 6.04 µM (inactive); in the assay on LOX IMVI it was 18.7 µM (inactive); in the assay with MDA-MB-231 it was 6.41 µM (inactive); in the assay with MOLT-4, 39.9 µM (inactive); in the assay on NCI-H23, 42.1 µM (inactive). The GI50 with OVCAR-8 was 30.1 µM (inactive); in the assay with RXF 393, 10.5 µM (inactive); in the assay on SF-295, 21.8 µM (inactive); in the assay on SF-539, 14.6 µM (inactive); in the assay on SK-MEL-2, > 71.6 µM (inactive); in the assay with SNB-75, 4.5 µM (inactive). Besides, the GI50 in the assay with UACC-257 is > 20.5 µM (inactive); in the assay with UACC-62 it was 18.6 µM (inactive).
